In publication PMC10033419, “Blocking NS3–NS4B interaction inhibits dengue virus in non-human primates” (Nature, 2023):
“And” between values parts separate entries of the source, which are not always exact repeats. Equal entries are not always repeated. Where two headings read alike, the source gives them in different places.

Columns and labels:
DENV-2 RL strain = experiment: Day 3 viraemia model, high viral inoculum (10^6 PFU); format: in vivo, AG129 mice
INF-B Singapore = experiment: microbe, parasite or virus in culture; format: cell-based; conditions: Influenza B virus, MDCK
WNV R94224 = experiment: microbe, parasite or virus in culture; format: cell-based; conditions: West Nile virus
in vitro = conditions: African green monkey
[1] = Pharmacokinetics in mice, i.v. and oral; format: in vivo, CD-1 mice; conditions: for bioavailability: po
Procedure: The housing conditions and experimental procedures were approved by the ethics committee on animal experiments of Janssen Pharmaceutica NV (license number LA1100119). Janssen Pharmaceutica NV has full AAALAC accreditation. […] The blood samples were immediately centrifuged at 4 °C and the plasma was stored at −20 °C. Compound concentrations in the plasma samples were determined using the API 5500 LC–MS/MS system mass spectrometer (Applied Biosystems). […] (Certara).

[2] = rhesus monkey, in vivo
[3] = Study 2 - 160510, 6 mg/kg/d, individual animals, listed as 64281802-AAA
[4] = Study 2 - 160510, 20 mg/kg/d, individual animals, listed as 64281802-AAA
[5] = Study 3 - 170410, 0,2 mg/kg/d, first group of 8, individual animals, listed as 64281802-AAA
[6] = Study 3 - 170410, 0,2 mg/kg/d, second group of 8, individual animals, listed as 64281802-AAA
[7] = Study 3 - 170410, 0,6 mg/kg/d, individual animals, listed as 64281802-AAA
[8] = Study 3 - 170410, 20 mg/kg/d, individual animals
[9] = male, CD-1, plasma, mouse oral 1 mg/kg
[10] = male, CD-1, plasma, mouse oral 10 mg/kg
[11] = male, CD-1, plasma, mouse oral 30 mg/kg
[12] = mouse i.v. 2.5 mg/kg, 2.5 mg/kg

## COc1cc(N[C@H](C(=O)c2c[nH]c3ccc(OC(F)(F)F)cc23)c2ccc(Cl)cc2OC)cc(S(C)(=O)=O)c1 [JNJ-1802]
DENV-2 RL strain; Study 2 - 160510, 6 mg/kg/d, group average
  Av Log 10 (average): 3.78
DENV-2 RL strain; Study 2 - 160510, 6 mg/kg/d, group median
  Av Log 10 (Ave/Med: median): 3.87
DENV-2 RL strain; [3]
  Copy number: 9.12E+03 and 5.17E+03 and 3.62E+04 and 5.97E+03 and 3.93E+02
  Log 10 (copy number): 3.96 and 3.71 and 4.56 and 4.11 and 3.78 and 2.59
DENV-2 RL strain; Study 2 - 160510, 20 mg/kg/d, group average
  Av Log 10 (average): 2.83
DENV-2 RL strain; Study 2 - 160510, 20 mg/kg/d, group median
  Av Log 10 (Ave/Med: median): 2.59
DENV-2 RL strain; [4]
  Copy number: 1.05E+04 and 3.93E+02
  Log 10 (copy number): 4.02 and 2.59
DENV-2 RL strain; Study 3 - 170410, 0,2 mg/kg/d, first group of 8, group average
  Av Log 10 (average): 6.01
DENV-2 RL strain; Study 3 - 170410, 0,2 mg/kg/d, first group of 8, group median
  Av Log 10 (Ave/Med: median): 6.07
DENV-2 RL strain; [5]
  Copy number: 1.86E+06 and 1.20E+06 and 1.13E+06 and 8.80E+05 and 2.24E+05 and 2.37E+06
  Log 10 (copy number): 6.27 and 6.08 and 6.05 and 5.94 and 5.35 and 6.38
DENV-2 RL strain; Study 3 - 170410, 0,2 mg/kg/d, second group of 8, group average
  Av Log 10 (average): 5.85
DENV-2 RL strain; Study 3 - 170410, 0,2 mg/kg/d, second group of 8, group median
  Av Log 10 (Ave/Med: median): 6.03
DENV-2 RL strain; [6]
  Copy number: 1.58E+06 and 7.37E+04 and 5.97E+06 and 8.67E+05 and 1.42E+06 and 1.06E+06 and 9.43E+04
  Log 10 (copy number): 6.20 and 4.87 and 6.78 and 5.94 and 6.15 and 6.03 and 4.97
DENV-2 RL strain; Study 3 - 170410, 0,6 mg/kg/d, group average
  Av Log 10 (average): 3.92
DENV-2 RL strain; Study 3 - 170410, 0,6 mg/kg/d, group median
  Av Log 10 (Ave/Med: median): 4.48
DENV-2 RL strain; [7]
  Copy number: 3.45E+04 and 2.62E+04 and 3.90E+04 and 3.93E+02
  Log 10 (copy number): 5.16 and 4.86 and 4.54 and 4.42 and 4.59 and 2.59
DENV-2 RL strain; Study 3 - 170410, 20 mg/kg/d, group average
  Av Log 10 (average): 2.59
DENV-2 RL strain; Study 3 - 170410, 20 mg/kg/d, group median
  Av Log 10 (Ave/Med: median): 2.59
DENV-2 RL strain; [8]
  Copy number: 3.93E+02
  Log 10 (copy number): 2.59
DENV-2 RL strain; mouse, in vivo, 6 mg/kg/day
  Copy number: 1.28E+04
INF-B Singapore
  EC50: > 2600 nM
INF-B Singapore; read-out: EC50, Mean
  EC50: > 25000 nM
INF-B Singapore; read-out: EC90, Mean
  EC90: > 25000 nM
WNV R94224; Vero C1008
  EC50: 250 nM
WNV R94224; Vero C1008, read-out: mean EC50, range
  EC50: 250 to 1100 nM
In vitro
  CC50: 16000 nM
[1]; male, CD-1, in vivo, iv, mouse i.v. 2.5 mg/kg, read-out: CLp
  clearance: 4.97 ± 1.26 mL/min/kg
[1]; male, CD-1, in vivo, mouse oral 3 mg/kg
  Cmax: 501 ± 149 ng/mL
[1]; male, CD-1, mouse, plasma, iv, 2.5 mg/kg, mouse i.v. 2.5 mg/kg
  half-life: 6.2 h
[1]; male, CD-1, mouse, plasma, 1 mg/kg, mouse oral 1 mg/kg
  bioavailability: 46 ± 6%
[1]; male, CD-1, mouse, plasma, 3 mg/kg, mouse oral 3 mg/kg
  bioavailability: 59 ± 28%
[1]; male, CD-1, mouse, plasma, 10 mg/kg, mouse oral 10 mg/kg
  bioavailability: > 100%
[1]; male, CD-1, mouse, plasma, 30 mg/kg, mouse oral 30 mg/kg
  bioavailability: 121 ± 21%
[1]; male, CD-1, mouse, plasma, mice, single oral dose 1 to 30 mg per kg, read-out: AUC0–24h, range
  AUC(0-t): 1520 to 120000 ng·h/mL
[1]; male, CD-1, plasma, iv, mouse i.v. 2.5 mg/kg
  AUC(0-inf): 8820 ng·h/mL
[1]; male, CD-1, plasma, iv, mouse i.v. 2.5 mg/kg, read-out: AUC(0-24h)
  AUC(0-t): 8240 ng·h/mL
[1]; [9]
  Cmax: 119 ± 26 ng/mL
  Tmax: 5 ± 1.7 h
[1]; male, CD-1, plasma, mouse oral 1 mg/kg, read-out: AUC(0-24h)
  AUC(0-t): 1520 ng·h/mL
[1]; male, CD-1, plasma, mouse oral 3 mg/kg
  Tmax: 5 ± 1.7 h
[1]; male, CD-1, plasma, mouse oral 3 mg/kg, read-out: AUC(0-24h)
  AUC(0-t): 5780 ng·h/mL
[1]; [10]
  Cmax: 2730 ng/mL
  Tmax: 7 h
[1]; male, CD-1, plasma, mouse oral 10 mg/kg, read-out: AUC(0-24h)
  AUC(0-t): 35600 ng·h/mL
[1]; [11]
  Cmax: 7760 ng/mL
  Tmax: 6 ± 1.7 h
[1]; male, CD-1, plasma, mouse oral 30 mg/kg, read-out: AUC(0-24h)
  AUC(0-t): 120000 ng·h/mL
[1]; [12]
  Vdssp: 2.51 ± 0.55 L/kg and 2.51 ± 0.553 L/kg
  t1/2: 6.17 ± 0.23 h
[1]; mouse oral 1 mg/kg, 1 mg/kg
  F: 46.1+/-6.47%
[1]; mouse oral 3 mg/kg, 3 mg/kg
  F: 58.5+/-27.9%
[2]
  haematological analysis: did not show any indication for a treatment-related effect
